These results are taken from US20160060260A1, “BROMODOMAIN INHIBITORS FOR TREATING DISEASE” (Board of Regents, The University of Texas System, priority 2014, published 2016).

pIC50: −log10 of the molar value.

The assay concerns the target T1, Recombinant human His-tagged Trim24-PHD-bromodomain (Homo sapiens, UniProt O15164).
T1 construct: Recombinant human His-tagged Trim24-PHD-bromodomain (produced in-house); made in house
T1 sequence (O15164 824-1006 limits assumed): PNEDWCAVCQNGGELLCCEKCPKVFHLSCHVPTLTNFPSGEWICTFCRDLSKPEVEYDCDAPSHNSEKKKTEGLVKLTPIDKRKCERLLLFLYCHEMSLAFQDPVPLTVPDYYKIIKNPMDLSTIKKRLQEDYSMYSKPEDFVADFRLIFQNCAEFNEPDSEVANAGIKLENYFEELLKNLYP
Briefly: Trim24 AlphaScreen Assay. The assay is classed as binding. The note with it: 5 nM Trim24 protein, 15 nM biotinylated H3K23ac (1-33aa) peptide. On the procedure: Recombinant human His-tagged Trim24-PHD-bromodomain (produced in-house), biotinylated H3K23ac (1-33aa) peptide (AnaSpec, Inc.), and test compound were added to a 384-well OptiPlate (Perkin Elmer) and incubated at room temperature for one hour. The assay buffer consisted of 50 mM Hepes, pH 7.5, 100 mM NaCl, and 0.12 mM Triton X-100.
Streptavidin donor beads and nickel chelate acceptor beads, both from a Perkin Elmer AlphaScreen Histidine Detection Kit, were then added to the Optiplate to a final concentration of 10 ug/mL each. Following a 2 hour incubation at room temperature, the microplate was read on an Envision Plate Reader (Perkin Elmer). Percent of control (POC) values were calculated from the following formula:
POC=[sample signal-average background signal]/[average maximum signal−average background signal]*100
The average maximum signal was obtained from wells containing all assay components except test compound. The average background signal pertained to wells with all assay components except Trim24 and test compound. IC50 values were calculated using a four-parameter logistic curve fit.
On the technique in general: Alpha assays give light when donor and acceptor beads are brought close together.
One may read the pIC50 as −log10 of the IC50, conventionally taken in molar units. Turning to `Cc1c(S(=O)(=O)Nc2cc3c(cc2Oc2cc(OCCCCCCN)cc(OCC(F)(F)F)c2)n(C)c(=O)n3C)cnn1C` [Example 200, N-(6-(3-((6-aminohexyl)oxy)-5-(2,2,2-trifluoroethoxy)phenoxy)-1,3-dimethyl-2-oxo-2,3-dihydro-1H-benzo[d]imidazol-5-yl)-1,5-dimethyl-1H-pyrazole-4-sulfonamide], the pIC50 is 8.00 to 9.00. As for `CCCOc1cc(OCCCOC)cc(Oc2cc3c(cc2NS(=O)(=O)C2CC2)n(C)c(=O)n3C)c1` [Example 150, N-(6-(3-(3-methoxypropoxy)-5-propoxyphenoxy)-1,3-dimethyl-2-oxo-2,3-dihydro-1H-benzo[d]imidazol-5-yl)cyclopropanesulfonamide], the figure is 6.00 to 7.00; as for `C=CCOc1cccc(S(=O)(=O)Nc2cc3c(cc2Oc2cccc(OCC(F)(F)F)c2)n(C)c(=O)n3C)c1` [Example 193, 3-(allyloxy)-N-(1,3-dimethyl-2-oxo-6-(3-(2,2,2-trifluoroethoxy)phenoxy)-2,3-dihydro-1H-benzo[d]imidazol-5-yl)benzenesulfonamide], 6.00 to 7.00; as for `CCCOc1cc(Oc2cc3c(cc2NS(=O)(=O)c2cn(C)cn2)n(C)c(=O)n3C)ccc1Cl` [Example 112, N-(6-(4-chloro-3-propoxyphenoxy)-1,3-dimethyl-2-oxo-2,3-dihydro-1H-benzo[d]imidazol-5-yl)-1-methyl-1H-imidazole-4-sulfonamide], 6.00 to 7.00. Consider `CCc1cc(OCC(C)C)cc(Oc2cc3c(cc2NS(=O)(=O)c2cn(C)cn2)n(C)c(=O)n3C)c1` [Example 226, N-(6-(3-ethyl-5-isobutoxyphenoxy)-1,3-dimethyl-2-oxo-2,3-dihydro-1H-benzo[d]imidazol-5-yl)-1-methyl-1H-imidazole-4-sulfonamide], for which the pIC50 was 7.00 to 8.00. As for `Cc1nc(S(=O)(=O)Nc2cc3c(cc2Oc2ccc(F)c(OCC4CC4)c2)n(C)c(=O)n3C)cn1C` [Example 130, N-(6-(3-(cyclopropylmethoxy)-4-fluorophenoxy)-1,3-dimethyl-2-oxo-2,3-dihydro-1H-benzo[d]imidazol-5-yl)-1,2-dimethyl-1H-imidazole-4-sulfonamide], the pIC50 was < 6.00. The value for `CCCOc1cc(OCCCOC)cc(Oc2cc3c(cc2NS(=O)(=O)c2cccc(CC)c2)n(C)c(=O)n3C)c1` [Example 160, 3-ethyl-N-(6-(3-(3-methoxypropoxy)-5-propoxyphenoxy)-1,3-dimethyl-2-oxo-2,3-dihydro-1H-benzo[d]imidazol-5-yl)benzenesulfonamide] was 6.00 to 7.00.

Regarding `CCCOc1cc(OCCCOC)cc(Oc2cc3c(cc2NS(=O)(=O)c2cccc4c2OCCO4)n(C)c(=O)n3C)c1` [Example 175, N-(6-(3-(3-methoxypropoxy)-5-propoxyphenoxy)-1,3-dimethyl-2-oxo-2,3-dihydro-1H-benzo[d]imidazol-5-yl)-2,3-dihydrobenzo[b][1,4]dioxine-5-sulfonamide], the pIC50 is 6.00 to 7.00.

For the molecule `Cn1c(=O)n(C)c2cc(Oc3cccc(OCC4CC4)c3)c(NS(=O)(=O)c3cn[nH]c3)cc21` [Example 132, N-(6-(3-(cyclopropylmethoxy)phenoxy)-1,3-dimethyl-2-oxo-2,3-dihydro-1H-benzo[d]imidazol-5-yl)-1H-pyrazole-4-sulfonamide], the pIC50 is 6.00 to 7.00. The value for `CCCOc1cc(OCCCCCCN)cc(Oc2cc3c(cc2NS(=O)(=O)c2ccc(OC)c(OC)c2)n(C)c(=O)n3C)c1` [Example 7, N-(6-{3-[(6-aminohexyl)oxy]-5-propoxyphenoxy}-1,3-dimethyl-2-oxo-2,3-dihydro-1H-1,3-benzodiazol-5-yl)-3,4-dimethoxybenzene-1-sulfonamide] was 7.00 to 8.00; that for `Cn1cnc(S(=O)(=O)Nc2cc3c(cc2Oc2cc(OCC4CC4)cc(OCC4CC4)c2)n(C)c(=O)n3C)c1` [Example 117, N-(6-(3,5-bis(cyclopropylmethoxy)phenoxy)-1,3-dimethyl-2-oxo-2,3-dihydro-1H-benzo[d]imidazol-5-yl)-1-methyl-1H-imidazole-4-sulfonamide] was 7.00 to 8.00. As for `COCCCn1cnc(S(=O)(=O)Nc2cc3c(cc2Oc2cccc(OCC(F)(F)F)c2)n(C)c(=O)n3C)c1` [Example 96, N-(1,3-dimethyl-2-oxo-6-(3-(2,2,2-trifluoroethoxy)phenoxy)-2,3-dihydro-1H-benzo[d]imidazol-5-yl)-1-(3-methoxypropyl)-1H-imidazole-4-sulfonamide], the figure is 7.00 to 8.00.

`Cc1c(S(=O)(=O)Nc2cc3c(cc2Oc2cc(OCCCCN(C)C)cc(OCC(F)(F)F)c2)n(C)c(=O)n3C)cnn1C` [Example 212, N-(6-(3-(4-(dimethylamino)butoxy)-5-(2,2,2-trifluoroethoxy)phenoxy)-1,3-dimethyl-2-oxo-2,3-dihydro-1H-benzo[d]imidazol-5-yl)-1,5-dimethyl-1H-pyrazole-4-sulfonamide]: the pIC50 was 8.00 to 9.00. As for `Cc1ncc(S(=O)(=O)Nc2cc3c(cc2Oc2cccc(OCc4ccccc4)c2)n(C)c(=O)n3C)s1` [Example 47, N-(6-(3-(benzyloxy)phenoxy)-1,3-dimethyl-2-oxo-2,3-dihydro-1H-benzo[d]imidazol-5-yl)-2-methylthiazole-5-sulfonamide], the figure is 6.00 to 7.00. As for `Cn1cnc(S(=O)(=O)Nc2cc3c(cc2Oc2cccc(OCC(C)(O)CNCCN)c2)n(C)c(=O)n3C)c1` (stereo not shown) [Example 237, N-[6-(3-{3-[(2-aminoethyl)amino]-2-hydroxy-2-methylpropoxy}phenoxy)-1,3-dimethyl-2-oxo-2,3-dihydro-1H-1,3-benzodiazol-5-yl]-1-methyl-1H-imidazole-4-sulfonamide], the figure is 6.00 to 7.00. Consider `CCCOc1cc(OCC2CC2)cc(Oc2cc3c(cc2NS(=O)(=O)c2cccnc2)n(C)c(=O)n3C)c1` [Example 118, N-(6-(3-(cyclopropylmethoxy)-5-propoxyphenoxy)-1,3-dimethyl-2-oxo-2,3-dihydro-1H-benzo[d]imidazol-5-yl)pyridine-3-sulfonamide], for which the pIC50 is 7.00 to 8.00. Take `Cc1nc(S(=O)(=O)Nc2cc3c(cc2Oc2cccc(OCc4ccccc4)c2)n(C)c(=O)n3C)cn1C` [Example 26, N-(6-(3-(benzyloxy)phenoxy)-1,3-dimethyl-2-oxo-2,3-dihydro-1H-benzo[d]imidazol-5-yl)-1,2-dimethyl-1H-imidazole-4-sulfonamide]: the pIC50 was 6.00 to 7.00. As to `CCc1cccc(S(=O)(=O)Nc2cc3c(cc2Oc2cccc(OCc4ccccc4)c2)n(C)c(=O)n3C)c1` [Example 33, N-(6-(3-(benzyloxy)phenoxy)-1,3-dimethyl-2-oxo-2,3-dihydro-1H-benzo[d]imidazol-5-yl)-3-ethylbenzenesulfonamide], the pIC50 was < 6.00.

As for `COCC(C)(O)COc1cccc(Oc2cc3c(cc2NS(=O)(=O)c2cn(C)cn2)n(C)c(=O)n3C)c1` (stereo not shown) [Example 233, N-{6-[3-(2-hydroxy-3-methoxy-2-methylpropoxy)phenoxy]-1,3-dimethyl-2-oxo-2,3-dihydro-1H-1,3-benzodiazol-5-yl}-1-methyl-1H-imidazole-4-sulfonamide], the pIC50 was 6.00 to 7.00.

With `Cn1cnc(S(=O)(=O)Nc2cc3c(cc2Oc2cc(OCCCCCCN)cc(OCC(F)(F)F)c2)n(C)c(=O)n3C)c1` [Example 202, N-(6-(3-((6-aminohexyl)oxy)-5-(2,2,2-trifluoroethoxy)phenoxy)-1,3-dimethyl-2-oxo-2,3-dihydro-1H-benzo[d]imidazol-5-yl)-1-methyl-1H-imidazole-4-sulfonamide], the pIC50 was 8.00 to 9.00.

For `CCCOc1cc(OCCCOC)cc(Oc2cc3c(cc2NS(=O)(=O)c2ccc(OC(F)F)cc2)n(C)c(=O)n3C)c1` [Example 167, 4-(difluoromethoxy)-N-(6-(3-(3-methoxypropoxy)-5-propoxyphenoxy)-1,3-dimethyl-2-oxo-2,3-dihydro-1H-benzo[d]imidazol-5-yl)benzenesulfonamide], the pIC50 was 6.00 to 7.00. Regarding `COCCCOc1cc(OCC(F)(F)F)cc(Oc2cc3c(cc2NS(=O)(=O)c2cn(C)c(C)n2)n(C)c(=O)n3C)c1` [Example 141, N-(6-(3-(3-methoxypropoxy)-5-(2,2,2-trifluoroethoxy)phenoxy)-1,3-dimethyl-2-oxo-2,3-dihydro-1H-benzo[d]imidazol-5-yl)-1,2-dimethyl-1H-imidazole-4-sulfonamide], the pIC50 was 7.00 to 8.00. In the case of `Cc1nc(S(=O)(=O)Nc2cc3c(cc2Oc2cccc(OCCCO)c2)n(C)c(=O)n3C)cn1C` [Example 55, N-(6-(3-(3-hydroxypropoxy)phenoxy)-1,3-dimethyl-2-oxo-2,3-dihydro-1H-benzo[d]imidazol-5-yl)-1,2-dimethyl-1H-imidazole-4-sulfonamide], the pIC50 is 6.00 to 7.00.

On to `CCCOc1cccc(Oc2cc3c(cc2NS(=O)(=O)c2cccnc2)n(C)c(=O)n3C)c1` [Example 99, N-(1,3-dimethyl-2-oxo-6-(3-propoxyphenoxy)-2,3-dihydro-1H-benzo[d]imidazol-5-yl)pyridine-3-sulfonamide], for which the pIC50 is 7.00 to 8.00. As for `CN(C)CCCCOc1cccc(Oc2cc3c(cc2NS(=O)(=O)c2cn(C)cn2)n(C)c(=O)n3C)c1` [Example 9, N-(6-(3-(4-(dimethylamino)butoxy)phenoxy)-1,3-dimethyl-2-oxo-2,3-dihydro-1H-benzo[d]imidazol-5-yl)-1-methyl-1H-imidazole-4-sulfonamide 2,2,2-trifluoroacetate], the figure is < 6.00.
